Data as given in ChEMBL document CHEMBL5150018, “Subtilisin-like Serine Protease 1 (SUB1) as an Emerging Antimalarial Drug Target: Current Achievements in Inhibitor Discovery” (J Med Chem, 2022).
Blank lines part the entries; values can stand above or below the compound they belong to. *1 amine or outer side, *2 acyl side, *3 side chain or, on linkers, in order; H or OH if unused. Where a SMILES comes first, the peptide text is derived from it. [ ]: non-standard residue; d: D form. The star is where a group is joined. Abu(ψCOCO) = CC[C@H](N[*:1])C(=O)C(=O)[*:2]; X1 = NC(=O)CC[C@H](N[*:1])C(=O)C(=O)[*:2]; X2 = C[C@H](N[*:1])C(=O)C(F)(F)C(=O)[*:2]; Pentanoyl(4-Me) = CC(C)CCC(=O)*; Bn = c1ccc(C*)cc1; CF3 = FC(F)(F)*; NHcPr = C1CC1N*

Tests used:
[1] = molecular target: T1, Subtilisin-like protease 1 (Plasmodium falciparum, UniProt O61142); assay: Inhibition of Plasmodium falciparum SUB1 in intact schizonts
T1 sequence (O61142 whole entry): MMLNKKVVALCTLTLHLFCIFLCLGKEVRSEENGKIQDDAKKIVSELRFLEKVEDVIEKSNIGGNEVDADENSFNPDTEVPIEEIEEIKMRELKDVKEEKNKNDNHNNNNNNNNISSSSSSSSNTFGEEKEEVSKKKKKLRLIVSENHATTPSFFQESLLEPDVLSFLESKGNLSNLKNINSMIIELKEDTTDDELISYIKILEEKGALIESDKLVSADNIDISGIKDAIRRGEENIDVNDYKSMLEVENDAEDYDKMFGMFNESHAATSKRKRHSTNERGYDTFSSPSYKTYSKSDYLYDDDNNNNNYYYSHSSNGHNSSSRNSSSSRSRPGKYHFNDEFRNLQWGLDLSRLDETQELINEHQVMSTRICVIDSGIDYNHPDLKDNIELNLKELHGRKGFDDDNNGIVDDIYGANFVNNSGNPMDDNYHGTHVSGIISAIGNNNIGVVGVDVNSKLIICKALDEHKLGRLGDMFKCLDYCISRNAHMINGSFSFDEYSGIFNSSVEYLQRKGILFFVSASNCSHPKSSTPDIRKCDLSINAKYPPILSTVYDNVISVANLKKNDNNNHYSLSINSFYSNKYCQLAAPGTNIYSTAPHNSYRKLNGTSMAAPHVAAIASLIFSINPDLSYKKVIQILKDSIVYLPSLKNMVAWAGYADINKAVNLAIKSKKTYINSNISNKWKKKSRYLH

[2] = molecular target: T1, Subtilisin-like protease 1; assay: Binding affinity to Plasmodium falciparum SUB1 using KLVSADNIDIS peptide as substrate by FRET assay
Plasmodium falciparum [3] = assay: Antimalarial activity against Plasmodium falciparum 3D7 assessed as inhibition of parasitic growth measured after 48 hrs; type: functional, organism-based; conditions: 3D7, 48 h
Plasmodium falciparum [4] = assay: Antimalarial activity against Plasmodium falciparum Dd2 assessed as inhibition of parasitic growth measured after 48 hrs; type: functional, organism-based; conditions: Dd2, 48 h
Plasmodium falciparum [5] = assay: Antimalarial activity against synchronized Plasmodium falciparum 3D7 infected in human RBC assessed as inhibition of cell invasion incubated for 4 to 8 hrs by Giemsa staining based microscopic analysis; type: functional; conditions: 3D7, Erythrocyte, time 4-8 hrs, read-out: ED50 (the source's name)
Plasmodium falciparum [6] = assay: Antimalarial activity against synchronized Plasmodium falciparum 3D7 infected in human RBC assessed as inhibition of parasite growth at schizont stage incubated for 4 to 8 hrs by Giemsa staining based microscopic analysis; type: functional; conditions: 3D7, Erythrocyte, time 4-8 hrs, read-out: ED50 (the source's name)
[7] = molecular target: T1, Subtilisin-like protease 1; assay: Inhibition of recombinant Plasmodium falciparum SUB1 using SERA4st1F-6R1 as substrate by fluorescence spectrophotometer
Plasmodium falciparum [8] = assay: Antimalarial activity against Plasmodium falciparum 3D7 assessed as inhibition of parasite growth incubated for 96 hrs by SYBR Green dye based assay; type: functional, organism-based; conditions: 3D7, 96 h
[9] = molecular target: T1, Subtilisin-like protease 1; assay: Inhibition of Plasmodium falciparum SUB1
[10] = Inhibition of recombinant Plasmodium vivax SUB1 using SERA4st1F-6R1 as substrate by fluorescence spectrophotometer
[11] = Inhibition of recombinant Plasmodium knowlesi SUB1 using SERA4st1F-6R1 as substrate by fluorescence spectrophotometer
[12] = Inhibition of recombinant C-terminal 6-His tagged Plasmodium vivax SUB1 expressed in baculovirus expression system
[13] = molecular target: T1, Subtilisin-like protease 1; assay: Inhibition of recombinant C-terminal 6-His tagged Plasmodium falciparum SUB1 expressed in baculovirus expression system
[14] = Inhibition of Plasmodium vivax SUB1
[15] = Inhibition of Bacillus licheniformis Subtilisin A

IC50 [1]: 18 µM
Compound: O=C(CCCCCNC(=O)CCCC[C@H]1SC[C@H]2NC(=O)N[C@H]21)NCCCCCC(=O)Nc1ccc2c(Cl)c(OCCc3ccccc3)oc(=O)c2c1

Ki [2]: 14.7 µM
Compound: CSc1ccc(CCNC(=O)Cn2ncc3c([nH]c4ccccc43)c2=O)cc1
IC50 (Plasmodium falciparum [3]): > 50 µM
IC50 (Plasmodium falciparum [4]): > 50 µM

Ki [2]: 7.6 µM
Compound: O=C(Nc1ccc(-c2nc3cc(NC(=O)c4ccccc4)ccc3[nH]2)cc1)c1ccccc1
IC50 (Plasmodium falciparum [3]): 1.1 µM
IC50 (Plasmodium falciparum [4]): 3.3 µM

EC50 (Plasmodium falciparum [5]): 25 µM
Compound: Oc1ccc(C2Oc3c(c(O)cc4c3C3c5c(O)cc(O)c(O)c5OC(c5ccc(O)c(O)c5)(O4)C3O)CC2O)cc1O (stereo not given)
EC50 (Plasmodium falciparum [6]): 108 µM

Compound: COc1ccc(Nc2cc(C)c3cc(NC(=O)c4cc5ccccc5[nH]4)ccc3n2)cc1
IC50 (Plasmodium falciparum [3]): 0.37 µM
IC50 (Plasmodium falciparum [4]): 0.45 µM

IC50 [7]: > 50 µM
Compound: CC[C@H](C)[C@H](NC(C)=O)C(=O)N[C@H](C(=O)N[C@@H](C)C(=O)N[C@@H](C)C(=O)C(F)(F)C(=O)O)[C@@H](C)O

IC50 [7]: 17 µM
Compound: Nc1cc2nc(Nc3ccc(Br)cc3)c(Nc3ccc(Br)cc3)nc2cc1Cl

IC50 [9]: 9.3 µM
Compound: CC(=O)N[C@H](C(=O)N[C@H](C(=O)NCC(=O)N[C@@H](C)B(O)O)[C@@H](C)O)C1CCCC1
EC50 (Plasmodium falciparum [8]): 2.3 µM

IC50 [9]: 5.7 µM
Compound: CC(=O)N[C@H](C(=O)N[C@H](C(=O)NCC(=O)N[C@@H](C)B(O)O)C(C)C)C1CCCC1
EC50 (Plasmodium falciparum [8]): 0.26 µM

Ki [2]: 30 µM
Compound: COc1cc(Cl)c(C)cc1NC(=O)Cn1c(=O)n(CC(=O)NC2CCCC2)c(=O)c2ccccc21
IC50 (Plasmodium falciparum [3]): > 50 µM
IC50 (Plasmodium falciparum [4]): > 50 µM

IC50 [9]: 0.37 µM
Compound: CC(=O)N[C@H](C(=O)N[C@H](C(=O)NCC(=O)NC(C)C(=O)C(=O)NCCC(=O)O)[C@@H](C)O)C1CCCC1 (stereo not given in full)

IC50 [7]: 14 µM
Compound: Clc1cc(Nc2nc3ccccc3nc2Nc2ccc(Br)c(Cl)c2)ccc1Br

IC50 [9]: 0.069 µM
Compound: CC[C@H](C)[C@H](NC(C)=O)C(=O)N[C@H](C(=O)NCC(=O)N[C@@H](C)B(O)O)[C@@H](C)O
EC50 (Plasmodium falciparum [8]): 1.8 µM

IC50 [9]: 7.8 µM
Compound: CC(=O)N[C@H](C(=O)N[C@@H](C)C(=O)NCC(=O)N[C@@H](C)B(O)O)C1CCCC1
EC50 (Plasmodium falciparum [8]): 0.34 µM

Ki [2]: 30.1 µM
Compound: CCc1cccc(NC(=O)c2ccc3c(=O)n4nc(Nc5cc(C)ccc5C)sc4nc3c2)c1
IC50 (Plasmodium falciparum [3]): 17.1 µM
IC50 (Plasmodium falciparum [4]): 22.3 µM

IC50 [9]: 4.6 µM
Compound: CC(=O)N[C@H](C(=O)N[C@H](C(=O)NCC(=O)N[C@H]1CCOB1O)[C@@H](C)O)C1CCCC1
EC50 (Plasmodium falciparum [8]): 15 µM

IC50 [7]: 1 µM
Compound: CC(C)[C@H](NC(=O)Cc1ccccc1)C(=O)NCC(=O)N[C@@H](C)C(=O)C(F)(F)C(=O)NCC(=O)O

IC50 [7]: 11 µM
Compound: CS(=O)(=O)Nc1cc2nc(Nc3ccc(Br)cc3)c(Nc3ccc(Br)cc3)nc2cc1Cl

IC50 [7]: 10 µM
Compound: Brc1ccc(Nc2nc3ccccc3nc2Nc2ccc(Br)cc2)cc1

Compound: CC[C@H](C)[C@H](NC(C)=O)C(=O)N[C@H](C(=O)N[C@@H](C)C(=O)N[C@@H](C)C(=O)C(F)(F)F)[C@@H](C)OCc1ccccc1 (Ac-IT(Bn)AA-CF3)
IC50 [7]: > 50 µM

IC50 [10]: 2.2 µM
IC50 [11]: 0.68 µM
Compound: CC[C@H](C)[C@H](NC(C)=O)C(=O)N[C@H](C(=O)N[C@@H](C)C(=O)N[C@@H](C)C(=O)C(F)(F)C(=O)NCC(=O)O)[C@@H](C)O (Ac-ITA[X2]G-OH)

Compound: CC[C@H](C)[C@H](NC(C)=O)C(=O)N[C@H](C(=O)NCC(=O)N[C@@H](C)C(=O)C(F)(F)C(=O)NCC(=O)O)C(C)C (Ac-IVG[X2]G-OH)
IC50 [7]: 0.25 µM

Compound: CC[C@H](NC(=O)[C@H](C)NC(=O)[C@@H](NC(=O)[C@@H](NC(=O)[C@H](CCCCN)NC(C)=O)[C@@H](C)CC)[C@@H](C)O)C(=O)C(=O)NC1CC1 (Ac-KITA[Abu(ψCOCO)]-NHcPr)
IC50 [12]: 12 µM
IC50 [13]: 6 µM

IC50 [10]: 2.5 µM
IC50 [11]: 1.12 µM
Compound: CC[C@H](C)[C@H](NC(=O)[C@H](CCCCN)NC(C)=O)C(=O)N[C@H](C(=O)N[C@@H](C)C(=O)N[C@@H](C)C(=O)C(F)(F)C(=O)NCC(=O)O)[C@@H](C)O (Ac-KITA[X2]G-OH)

Compound: CC[C@H](C)[C@H](NC(=O)[C@H](CCCCN)NC(=O)CCC(C)C)C(=O)N[C@H](C(=O)N[C@@H](C)C(=O)N[C@@H](CCC(N)=O)C(=O)C(=O)N[C@@H](CC(=O)O)C(=O)N[C@@H](CC(=O)O)C(=O)N[C@@H](CCC(N)=O)C(=O)N[C@@H](CCC(N)=O)C(N)=O)[C@@H](C)O ({Pentanoyl(4-Me)}-KITA[X1]DDQQ-NH2)
IC50 [9]: 17.8 µM
IC50 [14]: 10.5 µM

IC50 [15]: 59.3 µM
Compound: CC1(C)CC[C@]2(C(=O)O)CC[C@]3(C)C(=CC[C@@H]4[C@@]5(C)C[C@@H](O)[C@H](O)C(C)(C)[C@@H]5CC[C@]43C)[C@@H]2C1 [MASLINIC ACID]
